Converted amounts (≈) assume the structure as drawn. Read-outs that look alike come from different tables or passages of the source.
Experiments:
[1] = system: Aspergillus niger LOCK E201; experiment: Antifungal activity in vitro, serial dilution in RPMI 1640; assay type: cell-based; details: Table 2B
Summary of the method: (§1)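 Serial dilution, RPMI 1640 pH 7.0 (M27-A2 reference method); A531 read-out. IC50 = interpolated conc. at 50% of control A531; MIC = lowest conc. with A531 ≤20% of control.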

[2] = system: Candida albicans ATCC 10231; experiment: as above; assay type: cell-based
Summary of the method: as §1

Candida arborea KKP 319 = experiment: as above; assay type: cell-based; details: Table 2B
Summary of the method: as §1

[3] = system: Candida dubliniensis CBS 7987; experiment: as above; assay type: cell-based; details: Table 2B
Summary of the method: as §1

[4] = system: Candida lipolytica KKP 322; experiment: as above; assay type: cell-based; details: Table 2B
Summary of the method: as §1

[5] = system: Candida parapsilosis DSM 5784; experiment: as above; assay type: cell-based; details: Table 2B
Summary of the method: as §1

[6] = system: Candida pseudotropicalis KKP 324; experiment: as above; assay type: cell-based; details: Table 2B
Summary of the method: as §1

[7] = system: Candida quilliermondii DSM 11947; experiment: as above; assay type: cell-based; details: Table 2B
Summary of the method: as §1

[8] = system: Candida stellatoidea CBS 1905; experiment: as above; assay type: cell-based; details: Table 2B
Summary of the method: as §1

[9] = system: Saccharomyces cerevisiae ATCC 9763; experiment: as above; assay type: cell-based
Summary of the method: as §1

[10] = system: Trichoderma viride LOCK E159; experiment: as above; assay type: cell-based; details: Table 2B
Summary of the method: as §1

Human erythrocytes = experiment: Hemotoxicity (hemolytic activity)
Protocol: The hemotoxicity determination were carried out by the serial dilutions method, according to the procedure described earlier (Ślisz, M., et al., E., J Antibiot 57: 669-678 (2004)). Human erythrocytes were suspensed in the solution of saline to obtain a cell density of suspension 2×10^7/ml. Suitable amounts of diluted solutions of compounds were added to the cell suspension in tubes and were incubated at 37° C. for 30 minutes and then centrifuged (1700×g, 10 min, 4° C.). The concentration of hemoglobin in supernatant after centrifugation of erythrocytes suspension were determined by measuring the absorbance at wavelength λ=540 nm (A540). The maximum level of hemolysis was obtained after incubation of cells suspension in the presence of 0.1% Tritone X-100 (control sample). […] From these graphs, the EH50 values were read which are the interpolated concentrations of compound, for which the A540 value is exactly 50% of the A540 value measured for the control sample.

Candida albicans 5674 = experiment: Antifungal activity towards resistant (MDR) strains; assay type: cell-based
Protocol: (§2) The determination of antifungal activity was performed by the serial dilutions method in buffered RPMI 1640 medium, in a 96-wells microplates, according to the standard procedure (National Committee for Clinical Laboratory Standards. Reference method for broth dilution antifungal susceptibility testing of yeast, approved standard, 2nd ed. M27-A2 vol. 22 Wayne, Pa., 2002). The optical density of cells suspension was measured using a microplates reader (Victor^3, Perkin-Elmer) at the wavelength λ=660 nm (A660). On the basis of received results the diagrams on interrelation between the A660 value and the concentration of tested compound were made. From these graphs MIC values were read, that are the concentrations of tested compounds, in the presence at which A660 value is at most 20% of A660 value measured in control sample.

Candida albicans B3 = experiment: as above; assay type: cell-based; details: fluconazole sensitive, parent strain for B4
Protocol: as §2

Candida albicans B4 = experiment: as above; assay type: cell-based
Protocol: as §2

Candida albicans F2 = experiment: as above; assay type: cell-based; details: fluconazole sensitive, parent strain for F5
Protocol: as §2

Candida albicans F5 = experiment: as above; assay type: cell-based
Protocol: as §2

Candida albicans Gu4 = experiment: as above; assay type: cell-based; details: fluconazole sensitive, parent strain for Gu5
Protocol: as §2

Candida albicans Gu5 = experiment: as above; assay type: cell-based; details: fluconazole-resistant due to the overexpression of CDR1 and CDR2
Protocol: as §2

Candida albicans STY19 = experiment: as above; assay type: cell-based
Protocol: as §2

Candida albicans STY31 = experiment: as above; assay type: cell-based
Protocol: as §2

Candida albicans STY7 = experiment: as above; assay type: cell-based
Protocol: as §2

[11] = system: Candida glabrata DSM 11226; experiment: Antifungal activity in vitro, serial dilution in RPMI 1640; assay type: cell-based; details: Table 2A; RPMI 1640, pH 7.0
Summary of the method: as §1

Candida krusei DSM 6128 = experiment: as above; assay type: cell-based; details: Table 2A; RPMI 1640, pH 7.0
Summary of the method: as §1

[12] = system: Candida tropicalis KKP 334; experiment: as above; assay type: cell-based; details: Table 2A; RPMI 1640, pH 7.0
Summary of the method: as §1

CCRF-CEM = experiment: Cytotoxic activity against mammalian cells in tissue culture (MTT); assay type: cell-based, human; details: CCRF-CEM, 120 h, MTT
Protocol: (§3) For examinations were used selected cell lines: CCRF-CEM—human acute lymphoblastic leukemia; HepG2—human malignant hepatoma; LLC-PK1—epithelial cell of pig kidney; All lines were from ATCC collection.
(§4) The study are conducted using described below methods of culturing and determination of cytotoxic activity.
(§5) CCRF-CEM cells were cultured in medium RPMI 1640+10% fetal bovine serum (FBS), LLC-PK1 cells in medium Medium 199+3% FBS, HepG2 cells in medium MEM+10% FBS. All media contained 100 μg/ml of penicillin G and streptomycin. 24-wells microplates containing appropriate medium were inoculated with the cells in amount of 1.2×10^4 cells/well and allowed to stand overnight. Next, tested compounds as solution in dimethylsulfoxide (DMSO) were added in volume of 10 μl (serial 2× dilutions). To control well 10 μl of DMSO was added. Microplates with cell suspensions were incubated for 120 h at temperature 37° C. at atmosphere of 95%/5% CO2. After incubation, to all wells 200 μl of solution of 3-(4,5-dimethylthiazole-2-yl)-2,5-diphenylotetrazole bromide (MTT) in PBS (4 mg/ml) was added and plates were further incubated for 4 h at 37° C. Next, to dissolve crystals of formazane 1 ml of DMSO was added and absorption of solutions was measured at the wavelength λ=540 nm (A540), using a microplates reader (Victor^3, Perkin-Wallac). […] From these graphs IC50 values were read, that is concentration of tested compound in the presence at which A540 value is half of A540 value measured in the control sample.

HepG2 = experiment: as above; assay type: cell-based, human; details: HepG2, 120 h, MTT
Protocol: as §3, §4, §5

LLC-PK1 = experiment: as above; assay type: cell-based, pig; details: LLC-PK1, 120 h, MTT
Protocol: as §3, §4, §5

[13] = Table 2A, RPMI 1640, pH 7.0, A531 at most 20% of control

Q: With `C[C@@H]1[C@H](O)[C@@H](C)/C=C/C=C/CC/C=C/C=C/C=C/C=C/[C@H](O[C@@H]2O[C@H](C)[C@@H](O)[C@H](NC(=O)[C@H](N)c3ccccc3)[C@@H]2O)C[C@@H]2O[C@](O)(C[C@@H](O)C[C@@H](O)[C@H](O)CC[C@@H](O)C[C@@H](O)CC(=O)O[C@H]1C)C[C@H](O)[C@H]2C(=O)O` [Compound N33, N-D-phenylglycylnystatin A1] as the compound, how does the “MIC Aspergillus niger LOCK E201” value [1] read?
A: 32 µg/mL (≈ 30.2 µM)

Q: And the “MIC Candida albicans ATCC 10231” value ([2]; Table 2B)?
A: 8 µg/mL (≈ 7.55 µM)

Q: And the “MIC Candida arborea KKP 319” value (Candida arborea KKP 319)?
A: 32 µg/mL (≈ 30.2 µM)

Q: What about the “MIC Candida dubliniensis CBS 7987” value [3] of the same compound?
A: 16 µg/mL (≈ 15.1 µM)

Q: And the “MIC Candida lipolytica KKP 322” value [4]?
A: 16 µg/mL (≈ 15.1 µM)

Q: And the “MIC Candida parapsilosis DSM 5784” value [5]?
A: 32 µg/mL (≈ 30.2 µM)

Q: And the “MIC Candida pseudotropicalis KKP 324” value [6]?
A: 8 µg/mL (≈ 7.55 µM)

Q: What about the “MIC Candida quilliermondii DSM 11947” value [7] of the same compound?
A: 16 µg/mL (≈ 15.1 µM)

Q: And the “MIC Candida stellatoidea CBS 1905” value [8]?
A: 8 µg/mL (≈ 7.55 µM)

Q: And the “MIC Saccharomyces cerevisiae ATCC 9763” value ([9]; Table 2B)?
A: 4 µg/mL (≈ 3.78 µM)

Q: And the “MIC Trichoderma viride LOCK E159” value [10]?
A: 32 µg/mL (≈ 30.2 µM)

Q: What about the “% of hemolysis at the concentration 300 μg ml^−1” value (Human erythrocytes) of the same compound?
A: 8.69%

Q: What about the EH10 (Human erythrocytes) of the same compound?
A: >300 µg/mL

Q: And the “MIC Candida albicans 5674” value (Candida albicans 5674; C. albicans 5674 overexpressing CDR1 and CDR2)?
A: 16 µg/mL (≈ 15.1 µM)

Q: And the “MIC Candida albicans B3” value (Candida albicans B3)?
A: 4 µg/mL (≈ 3.78 µM)

Q: And the “MIC Candida albicans B4” value (Candida albicans B4; fluconazole-resistant due to the overexpression of CaMDR1)?
A: 8 µg/mL (≈ 7.55 µM)

Q: And the “MIC Candida albicans F2” value (Candida albicans F2)?
A: 16 µg/mL (≈ 15.1 µM)

Q: And the “MIC Candida albicans F5” value (Candida albicans F5; fluconazole-resistant due to the overexpression of CaMDR1 and ERG11)?
A: 32 µg/mL (≈ 30.2 µM)

Q: What about the “MIC Candida albicans Gu4” value (Candida albicans Gu4) of the same compound?
A: 8 µg/mL (≈ 7.55 µM)

Q: What about the “MIC Candida albicans Gu5” value (Candida albicans Gu5) of the same compound?
A: 8 µg/mL (≈ 7.55 µM)

Q: What about the “MIC Candida albicans STY19” value (Candida albicans STY19; 5674 mutant derivative, deletion of CDR1) of the same compound?
A: 16 µg/mL (≈ 15.1 µM)

Q: And the “MIC Candida albicans STY31” value (Candida albicans STY31; 5674 mutant derivative, deletion of CDR1 and CDR2)?
A: 16 µg/mL (≈ 15.1 µM)

Q: What about the “MIC Candida albicans STY7” value (Candida albicans STY7; 5674 mutant derivative, deletion of CDR2) of the same compound?
A: 16 µg/mL (≈ 15.1 µM)

Q: `OC(Cn1cncn1)(Cn1cncn1)c1ccc(F)cc1F` [Fluconazole, reference compound] was tested. Which MIC ([1]; Aspergillus niger, LOCKE201) did it give?
A: 16 µg/mL (≈ 52.2 µM)

Q: What about the MIC ([2]; Candida albicans, ATCC10231, Table 2B) of the same compound?
A: 2 µg/mL (≈ 6.53 µM)

Q: What about the MIC (Candida arborea KKP 319; Candida, KKP319) of the same compound?
A: 8 µg/mL (≈ 26.1 µM)

Q: What about the MIC ([3]; Candida dubliniensis, CBS7987) of the same compound?
A: 2 µg/mL (≈ 6.53 µM)

Q: What about the MIC ([4]; Yarrowia lipolytica, KKP322) of the same compound?
A: 8 µg/mL (≈ 26.1 µM)

Q: And the MIC ([5]; Lodderomyces parapsilosis, DSM5784)?
A: 8 µg/mL (≈ 26.1 µM)

Q: And the MIC ([6]; Kluyveromyces marxianus, KKP324)?
A: 0.5 µg/mL (≈ 1.63 µM)

Q: And the MIC ([7]; Candida, DSM11947)?
A: 8 µg/mL (≈ 26.1 µM)

Q: And the MIC ([8]; Candida albicans, CBS1905)?
A: 0.5 µg/mL (≈ 1.63 µM)

Q: What about the MIC ([9]; Saccharomyces cerevisiae, ATCC9763, Table 2B) of the same compound?
A: 2 µg/mL (≈ 6.53 µM)

Q: What about the MIC ([10]; Trichoderma viride, LOCKE159) of the same compound?
A: 8 µg/mL (≈ 26.1 µM)

Q: And the MIC (Candida albicans 5674; Candida albicans, 5674, read-out: MIC Candida albicans 5674)?
A: 2050 µg/mL (≈ 6690 µM)

Q: And the MIC (Candida albicans B3; Candida albicans, B3)?
A: 0.5 µg/mL (≈ 1.63 µM)

Q: And the MIC (Candida albicans B4; Candida albicans, B4, read-out: MIC Candida albicans B4)?
A: 16 µg/mL (≈ 52.2 µM)

Q: And the MIC (Candida albicans F2; Candida albicans, F2)?
A: 32 µg/mL (≈ 104 µM)

Q: What about the MIC (Candida albicans F5; Candida albicans, F5, read-out: MIC Candida albicans F5) of the same compound?
A: 128 µg/mL (≈ 418 µM)

Q: And the MIC (Candida albicans Gu4; Candida albicans, GU4)?
A: 0.5 µg/mL (≈ 1.63 µM)

Q: And the MIC (Candida albicans Gu5; Candida albicans, GU5)?
A: 256 µg/mL (≈ 836 µM)

Q: What about the MIC (Candida albicans STY19; Candida albicans, STY19, read-out: MIC Candida albicans STY19) of the same compound?
A: 64 µg/mL (≈ 209 µM)

Q: And the MIC (Candida albicans STY31; Candida albicans, STY31, read-out: MIC Candida albicans STY31)?
A: 64 µg/mL (≈ 209 µM)

Q: And the MIC (Candida albicans STY7; Candida albicans, STY7, read-out: MIC Candida albicans STY7)?
A: 512 µg/mL (≈ 1670 µM)

Q: What does the source list for “N-[3-(piperidin-1-yl)propionyl]nystatin A1 [Compound N44]”?
A: Antifungal activity Candida albicans ATCC 10231 IC50 ([2]; Table 2A, RPMI 1640, pH 7.0, A531 50% of control): 2.95 µg/mL; Antifungal activity Candida albicans ATCC 10231 MIC [2, 13]: 4 µg/mL; Antifungal activity Candida glabrata DSM 11226 MIC [11]: 8 µg/mL; Antifungal activity Candida krusei DSM 6128 MIC (Candida krusei DSM 6128): 8 µg/mL; Antifungal activity Candida tropicalis KKP 334 MIC [12]: 4 µg/mL; Antifungal activity Saccharomyces cerevisiae ATCC 9763 MIC [9, 13]: 4 µg/mL; % of hemolysis at the concentration 60 μg ml^−1 (Human erythrocytes): 0.95%; EH10 (Human erythrocytes; human erythrocytes, concentration causing 10% of hemolysis): 209.39 µg/mL; Cytotoxicity IC50 CCRF-CEM (CCRF-CEM): >100 µg/mL; Cytotoxicity IC50 HepG2 (HepG2): >100 µg/mL; Cytotoxicity IC50 LLC-PK1 (LLC-PK1): >100 µg/mL
